Test results reported in patent publication US20240342298A1, “METHODS OF TREATING TUMORS BY USING MOLECULAR CONSTRUCT” (Immunwork Inc., priority 2023, published 2024).

Tests used:
H929 cells = test: alamarBlue cell viability assay, H929 cells; assay type: cell-based, human
Procedure: (§1) Briefly, H929, U266-CD38^−, MM.1S, and Daudi cells were seeded at 5,000 cells/well in 96-well plates and co-cultured with fresh medium containing different test articles with the indicated concentrations at 37° C. for 5 hours, 1 day, 3 days, or 5 days. The viabilities of the cells were determined by alamarBlue™ cell viability reagent. About 10 μl alamarBlue™ cell viability reagent was added to the cells with a final concentration of 10% v/v, followed by incubating at 37° C. for 1.5 hours. The fluorescence was measured on a microplate reader in arbitrary fluorescent units following excitation at 560 nm and emission at 590 nm.
(§2) H929 cells were incubated for 5 hours, 1 day, 3 days, or 5 days (FIGS. 12A-12D), and MM.1S, U266-CD38-, and Daudi cells were incubated for 5 days (FIGS. 12E-12G). Then, cell viability was determined.

MM.1S cells = test: alamarBlue cell viability assay, MM.1S cells; assay type: cell-based, human
Procedure: as §1, §2

U266-CD38- cells = test: alamarBlue cell viability assay, U266-CD38- cells; assay type: cell-based; details: 5 days, FIG. 12F
Procedure: as §1, §2

H929 tumors [1] = test: H929 xenograft tumor model (tumors 150±20 mm^3); assay type: in vivo, NOD-SCID mice; details: 28 days
Procedure: (§3) To generate subcutaneous tumors, 2×10^7 H929 cells in PBS were mixed with 50% (v/v) extracellular matrix gel and injected subcutaneously into the flanks of NOD-SCID mice. Tumor size and body weight were recorded every 2-3 days. Volumes of subcutaneously xenografted tumors in vivo were determined using an external caliper, where tumor volume was calculated by the modified ellipsoid formula, ½×(length×width×width). […] At the end of experiments, tumors were collected and weighed. Statistical analysis was performed with Student t test and statistical differences between groups were analyzed by one-way ANOVA with Bonferroni's multiple comparison post-tests.

H929 tumors [2] = test: H929 xenograft tumor model, pilot study (tumors 115±15 mm^3); details: single dose 20 nmol/kg i.p. 7 days post-transplantation, measured for 21 days
Procedure: as §3
The tumors from all mice were excised and weighed on day 21 post drug administration.

[3] = HPLC analysis after 5-day incubation in PBS or RPMI medium without cells; assay type: physicochemical; details: 1 μM in PBS, 37° C., 5 days
Procedure: The total run time was 45 minutes.
(Panels (A) and (D) of FIG. 8B).

Compound	effect of cell death (H929 cells; even at doses >20 μM)	effect of cell death (MM.1S cells; even at doses >20 μM)	killing effect (U266-CD38- cells)	tumor growth compared to PBS (H929 tumors [1]; single dose 20 nmol/kg on day 14 after transplantation)	change of tumor sizes compared to PBS (H929 tumors [2])	HPLC peaks after long-term incubation (hydrolysis) [3]	cell killing (H929 cells; at doses >10 μM)	cell killing (MM.1S cells; at doses >10 μM)	tumor growth compared to PBS (H929 tumors [1]; daily i.p. injections)
daratumumab	no effect of cell death	no effect of cell death	did not possess any killing effect	inhibited tumor growth	could only slow down tumor growth				
Nc1cccc2c1CN(C1CCC(=O)NC1=O)C2=O (stereo not shown) [lenalidomide]			some killing effect at high concentrations			two additional peaks (p2 and p1) respectively corresponding to its two hydrolyzed forms	only weak killing	only weak killing	inhibited tumor growth
